Laboratory results taken from ChEMBL document CHEMBL1157865, “Synthesis and evaluation of SQ109 analogues as potential anti-tuberculosis candidates” (2010).
Converted amounts (≈) assume the structure as drawn.

System: Mycobacterium tuberculosis
Experiment: Antimycobacterial activity against Mycobacterium tuberculosis H37Rv ATCC 25618 by BACTEC 460 radiometric method
Format: functional

Point of comparison: `CC(C)=CCC/C(C)=C\CNCCNC12CC3CC(CC(C3)C1)C2`, MIC 1 µM (≈ 0.331 µg/mL). Against it:
- CC(C)CCCC(C)CCNCCNC12CC3CC(CC(C3)C1)C2 (stereo unspecified) — 2-fold lower, 0.5 µM (≈ 0.167 µg/mL)
- CC(C)CCCC(C)CCNCCNC1C2CC3CC(C2)CC1C3 (stereo unspecified) — the same, 1 µM (≈ 0.335 µg/mL)
- CC(C)CCCC(C)CCCC(C)CCNCCNC1C2CC3CC(C2)CC1C3 (stereo unspecified) — 2-fold lower, 0.5 µM (≈ 0.202 µg/mL)
- CC(C)=CCC/C(C)=C/CC/C(C)=C/CNCCNC1C2CC3CC(C2)CC1C3 (stereo unspecified) — 4-fold lower, 0.25 µM (≈ 0.0997 µg/mL)
- CC(C)=CCC/C(C)=C/CNCCNC1C2CC3CC(C2)CC1C3 (stereo unspecified) [SQ109] — 2-fold lower, 0.5 µM (≈ 0.165 µg/mL)
